The source of these data is patent US6316194A, “Methods and kits for discovery of RNA-binding antimicrobials” (Ribotargets, priority 1999, dated 2001).

This test relates to DABCYL-A site RNA (25 nucleotide model of the 16S rRNA A site, SEQ ID No. 1). Nature of the test: Competitive inhibition of paramomycin-TAMRA binding to DABCYL-A site RNA by unlabelled antibiotic (FRET, 96-well plate reader). Conditions: 25 nM paramomycin-TAMRA. The procedure:
Binding of paramomycin-TAMRA to A site RNA was measured in a fluorescent plate reader. Measurements were made in a 96-well plate reader (Wallac victor) with a fixed wavelength of 544 nm and emission at 590 nm. I0 was determined by an initial measurement of a 95 μL solution of 25 nM paramomycin-TAMRA in the presence of 50 mM Tris-HCl pH7.5, 80 mM KCl, 0.1% DMSO 0.00007% Triton X-100 and 0.5 ug/mL BSA presence of 10 μM Neomycin. I (the final measurement) was then measured following the addition of 5 μL of a 20×DABCYL-A site RNA stock solution (corresponding to the amounts shown in the figure).
Binding of paramomycin-TAMRA to A site RNA was measured in a fluorescent plate reader. Measurements were made in a 96-well plate reader (Wallac victor) with a fixed wavelength of 544 nm and emission at 590 nm. I0 was determined by an initial measurement of a 95 μL solution of 25 nM paramomycin-TAMRA in the presence of 50 mM Tris-HCl pH7.5, 80 mM KCl, 0.1% DMSO 0.00007% Triton X-100 and 0.5 ug/mL BSA presence of 15 μM Neomycin. I (the final measurement) was then measured following the addition of 5 μL of a 20×DABCYL-A site RNA stock solution (corresponding to the amounts shown in FIG. 9). […]

Turning to `NC[C@@H]1O[C@H](O[C@H]2[C@@H](O)[C@H](O[C@@H]3[C@@H](O)[C@H](N)C[C@H](N)[C@H]3O[C@H]3O[C@H](CO)[C@@H](O)[C@H](O)[C@H]3N)O[C@@H]2CO)[C@H](N)[C@@H](O)[C@@H]1O` [paramomycin], for the setting “15 μM Paramomycin (heading)”, the “Inhibition of paramomycin-TAMRA to A site binding” value is given as “competitive inhibitor”.

In the case of Neomycin, the “Inhibition of paramomycin-TAMRA to A site binding” value (10 μM Neomycin) is “a reduction in fluorescence in the presence of the neomycin competitor was observed”.
